Results as given in US10183938B2, “Geminal substituted quinuclidine amide compounds as agonists of α-7 nicotonic acetylcholine receptors” (AXOVANT SCIENCES GMBH, priority 2014, dated 2019).
Counter-ions that a name gives are not always drawn.

The compounds below were run against human α7 nAChRs transiently expressed in Xenopus laevis oocytes (Homo sapiens (Human), UniProt P36544) (assay: Oocyte electrophysiology screen (TEVC)). Conditions: 0.01 mM test compound, peak current relative to 0.2 mM ACh.
human α7 nAChRs transiently expressed in Xenopus laevis oocytes, sequence (P36544 23-502 limits assumed): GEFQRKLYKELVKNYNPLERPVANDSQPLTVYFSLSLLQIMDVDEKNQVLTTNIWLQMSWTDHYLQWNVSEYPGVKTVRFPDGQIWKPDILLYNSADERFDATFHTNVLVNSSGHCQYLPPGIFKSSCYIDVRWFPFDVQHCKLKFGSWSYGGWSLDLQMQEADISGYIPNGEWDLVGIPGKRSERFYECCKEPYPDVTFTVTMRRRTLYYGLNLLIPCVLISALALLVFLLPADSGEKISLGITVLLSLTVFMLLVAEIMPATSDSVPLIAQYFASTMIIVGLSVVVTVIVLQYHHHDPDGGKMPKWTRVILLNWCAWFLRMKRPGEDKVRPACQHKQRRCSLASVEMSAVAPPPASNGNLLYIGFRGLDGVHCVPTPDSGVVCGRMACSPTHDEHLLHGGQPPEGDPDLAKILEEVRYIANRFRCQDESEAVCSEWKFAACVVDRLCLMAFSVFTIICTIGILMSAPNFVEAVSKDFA
Type: cell-based
Method: Oocyte Electrophysiology Screen (% ACh @ 10 μM Oocyte)
The Oocyte Electrophysiology Screen studies were performed under contract by HiQScreen Geneva, Switzerland. All experiments were carried out at human α7 nAChRs transiently expressed in Xenopus laevis oocytes using the method of cDNA expression. Currents evoked by acetylcholine or other agonist ligands were recorded using the standard two-electrode voltage-clamp configuration (TEVC). X. laevis oocytes were prepared and injected using standard procedures. Briefly, ovaries were harvested from X. laevis females that were deeply anesthetized and pithed following the animal rights rule from the Geneva canton. A small piece of ovary was isolated for immediate preparation while the remaining part was placed at 4° C. in a sterile Barth solution containing in mM: NaCl 88, KCl 1, NaHCO3 2.4, HEPES 10, MgSO4.7H2O 0.82, Ca(NO3)2.4H2O 0.33, CaCl2.6H2O 0.41, at pH 7.4, and supplemented with 20 μg/mL of kanamycin, 100 unit/mL penicillin and 100 μg/mL streptomycin. […] Cells were held at −80 mV. Data were filtered at 10 Hz, captured at 100 Hz and analyzed using proprietary data acquisition and analysis software running under Matlab (Mathworks Inc.).
Experimental Protocol and Analysis
After establishing a baseline transmembrane current, acetylcholine (ACh) was applied for 5 seconds at a concentration of 0.2 mM to establish a control ACh-evoked current response. Following a wash period of 90 s in OR2 medium (free of ACh), cells were then exposed for 30 s to the test compound applied at 0.01 mM. The same reference ACh test pulse was immediately given at the end of the compound exposure and again after 90 s of recovery in OR2 Medium (free of ACh or test compound). All data were determined in triplicate. The response evoked by the test compound was expressed as a percentage of that evoked by ACh: Response (% ACh)=100×(Itest/IACh) where Itest is the peak inward current measured during exposure to 0.01 mM of test compound and IACh is the peak inward current measured in the presence of ACh.
In the case of `CC1(C)[C@@H](NC(=O)c2cc3ccc(F)cc3s2)C2CCN1CC2` [(S)-8, (S)—N-(2,2-dimethylquinuclidin-3-yl)-6-fluorobenzo[b]thiophene-2-carboxamide hydrochloride], the “% ACh @ 10 μM Oocyte” value was 1 % ACh. With `Cc1csc2cc(C(=O)N[C@@H]3C4CCN(CC4)C3(C)C)ccc12` [(R)-25, (R)—N-(2,2-dimethylquinuclidin-3-yl)-3-methylbenzo[b]thiophene-6-carboxamide hydrochloride] the “% ACh @ 10 μM Oocyte” value was 7 % ACh. `O=C(NC1C2CCN(CC2)C12CC2)c1cc2ccc(F)cc2s1` (single isomer, unassigned; enantiomer2) [61b, 6-fluoro-N-(1′-azaspiro[cyclopropane-1,2′-bicyclo[2.2.2]octan]-3′-yl)benzo[b]thiophene-2-carboxamide-enantiomer2] was tested, and the “% ACh @ 10 μM Oocyte” value was 1 % ACh. With `COc1ccc2cc(C(=O)N[C@H]3C4CCN(CC4)C3(C)C)sc2c1` [(S)-20, (S)—N-(2,2-dimethylquinuclidin-3-yl)-6-methoxybenzo[b]thiophene-2-carboxamide hydrochloride] the “% ACh @ 10 μM Oocyte” value was 5 % ACh. In the case of `O=C(N[C@@H]1C2CCN(CC2)C12CC2)c1cc2cccc(Cl)c2o1` [(R)-164, (R)-7-chloro-N-(1′-azaspiro[cyclopropane-1,2′-bicyclo[2.2.2]octan]-3′-yl)benzofuran-2-carboxamide hydrochloride], the “% ACh @ 10 μM Oocyte” value was 266 % ACh. In the case of `CC1(C)[C@H](NC(=O)c2ccc3occc3n2)C2CCN1CC2` [(R)-37, (R)—N-(2,2-dimethylquinuclidin-3-yl)furo[3,2-b]pyridine-5-carboxamide hydrochloride], the “% ACh @ 10 μM Oocyte” value was 5 % ACh. For `Cl.Cn1c(C(=O)N[C@@H]2C3CCN(CC3)C23CC3)cc2ccccc21` [(R)-254, (R)-1-methyl-N-(1′-azaspiro[cyclopropane-1,2′-bicyclo[2.2.2]octan]-3′-yl)-1H-indole-2-carboxamide hydrochloride], the “% ACh @ 10 μM Oocyte” value was 447 % ACh. With `Cc1nc2ccc(C(=O)N[C@@H]3C4CCN(CC4)C34CC4)cc2s1` [(R)-88, (R)-2-methyl-N-(1′-azaspiro[cyclopropane-1,2′-bicyclo[2.2.2]octan]-3′-yl)benzo[d]thiazole-6-carboxamide hydrochloride] the “% ACh @ 10 μM Oocyte” value was 133 % ACh. With `CC1(C)[C@@H](NC(=O)c2cc3cc(Cl)c(Cl)cc3s2)C2CCN1CC2` [(S)-14, (S)-5,6-dichloro-N-(2,2-dimethylquinuclidin-3-yl)benzo[b]thiophene-2-carboxamide hydrochloride] the “% ACh @ 10 μM Oocyte” value was 3 % ACh. `CC1(C)[C@H](NC(=O)c2cc3cccc(C#N)c3s2)C2CCN1CC2` [(R)-115, (R)-7-cyano-N-(2,2-dimethylquinuclidin-3-yl)benzo[b]thiophene-2-carboxamide hydrochloride] was tested, and the “% ACh @ 10 μM Oocyte” value was 215 % ACh. With `CC1(C)[C@@H](NC(=O)c2cc3ccoc3cn2)C2CCN1CC2` [(S)-22, (S)—N-(2,2-dimethylquinuclidin-3-yl)furo[2,3-c]pyridine-5-carboxamide hydrochloride] the “% ACh @ 10 μM Oocyte” value was 25 % ACh. With `CC1(C)[C@@H](NC(=O)c2cc3cccc(F)c3s2)C2CCN1CC2` [(S)-4, (S)—N-(2,2-dimethylquinuclidin-3-yl)-7-fluoro-benzo[b]thiophene-2-carboxamide hydrochloride] the “% ACh @ 10 μM Oocyte” value was 17 % ACh. In the case of `CC1(C)[C@@H](NC(=O)c2cc3cc(C4CC4)ccc3s2)C2CCN1CC2` [(S)-19, (S)-5-cyclopropyl-N-(2,2-dimethylquinuclidin-3-yl)benzo[b]thiophene-2-carboxamide hydrochloride], the “% ACh @ 10 μM Oocyte” value was 3 % ACh. `Cn1cnc2ccc(C(=O)N[C@@H]3C4CCN(CC4)C34CC4)cc21` [(R)-96, (R)-1-methyl-N-(1′-azaspiro[cyclopropane-1,2′-bicyclo[2.2.2]octan]-3′-yl)-1H-benzo[d]imidazole-6-carboxamide hydrochloride] was tested, and the “% ACh @ 10 μM Oocyte” value was 0 % ACh. For `CC1(C)[C@@H](NC(=O)c2cc3ccc(C#N)cc3s2)C2CCN1CC2` [(S)-9, (S)-6-cyano-N-(2,2-dimethylquinuclidin-3-yl)benzo[b]thiophene-2-carboxamide hydrochloride], the “% ACh @ 10 μM Oocyte” value was 1 % ACh. For `CC1(C)[C@@H](NC(=O)c2cc3c(cn2)OCCO3)C2CCN1CC2` [(S)-23, (S)—N-(2,2-dimethylquinuclidin-3-yl)-2,3-dihydro-[1,4]dioxino[2,3-c]pyridine-7-carboxamide hydrochloride], the “% ACh @ 10 μM Oocyte” value was 0 % ACh. `O=C(N[C@@H]1C2CCN(CC2)C12CC2)c1cc2ccc(N3CCC(F)(F)CC3)cc2s1` [(R)-100, (R)-6-(4,4-difluoropiperidin-1-yl)-N-(1′-azaspiro[cyclopropane-1,2′-bicyclo[2.2.2]octan]-3′-yl)benzo[b]thiophene-2-carboxamide hydrochloride] was tested, and the “% ACh @ 10 μM Oocyte” value was 1 % ACh. In the case of `CC1(C)[C@@H](NC(=O)c2cc3cc(Cl)ccc3s2)C2CCN1CC2` [(S)-13, (S)-5-chloro-N-(2,2-dimethylquinuclidin-3-yl)benzo[b]thiophene-2-carboxamide hydrochloride], the “% ACh @ 10 μM Oocyte” value was 3 % ACh. In the case of `O=C(N[C@H]1C2CCN(CC2)C12CC2)c1cc2c(cn1)OCCO2` [(S)-76, (S)—N-(1′-azaspiro[cyclopropane-1,2′-bicyclo[2.2.2]octan]-3′-yl)-2,3-dihydro-[1,4]dioxino[2,3-c]pyridine-7-carboxamide hydrochloride], the “% ACh @ 10 μM Oocyte” value was 1 % ACh. For `CC1(C)[C@H](NC(=O)c2cc3ccc(N4CCC(F)(F)CC4)cc3s2)C2CCN1CC2` [(R)-45, (R)-6-(4,4-difluoropiperidin-1-yl)-N-(2,2-dimethylquinuclidin-3-yl)benzo[b]thiophene-2-carboxamide hydrochloride], the “% ACh @ 10 μM Oocyte” value was 1 % ACh. In the case of `CC1(C)[C@H](NC(=O)c2ccc3oc(Cl)cc3c2)C2CCN1CC2` [(R)-39, (R)-2-chloro-N-(2,2-dimethylquinuclidin-3-yl)benzofuran-5-carboxamide hydrochloride], the “% ACh @ 10 μM Oocyte” value was 697 % ACh. With `CC1(C)[C@@H](NC(=O)c2cnn3ncccc23)C2CCN1CC2` [(S)-27, (S)—N-(2,2-dimethylquinuclidin-3-yl)pyrazolo[1,5-b]pyridazine-3-carboxamide hydrochloride] the “% ACh @ 10 μM Oocyte” value was 0 % ACh. In the case of `CC1(C)[C@H](NC(=O)c2cc3ccc(-n4ccnn4)cc3s2)C2CCN1CC2.Cl` [(R)-208, (R)-N-(2,2-dimethylquinuclidin-3-yl)-6-(1H-1,2,3-triazol-1-yl)benzo[b]thiophene-2-carboxamide hydrochloride], the “% ACh @ 10 μM Oocyte” value was 0 % ACh.

Same assay, conditions: 0.01 mM test compound, peak current relative to 0.2 mM ACh; hydrochloride
`O=C(NC1C2CCN(CC2)C12CC2)c1cc2cc(Cl)ccc2s1` (single isomer, unassigned; enantiomer1) [66b, 5-chloro-N-(1′-azaspiro[cyclopropane-1,2′-bicyclo[2.2.2]octan]-3′-yl)benzo[b]thiophene-2-carboxamide-enantiomer1 hydrochloride] was tested, and the “% ACh @ 10 μM Oocyte” value was 29 % ACh. `COc1ccc2cc(C(=O)NC3C4CCN(CC4)C34CC4)sc2c1` (single isomer, unassigned; enantiomer1) [73a, 6-methoxy-N-(1′-azaspiro[cyclopropane-1,2′-bicyclo[2.2.2]octan]-3′-yl)benzo[b]thiophene-2-carboxamide-enantiomer1 hydrochloride] was tested, and the “% ACh @ 10 μM Oocyte” value was 1036 % ACh. `Nc1ccc2cc(C(=O)NC3C4CCN(CC4)C34CC4)sc2c1` (single isomer, unassigned; enantiomer1) [62a, 6-amino-N-(1′-azaspiro[cyclopropane-1,2′-bicyclo[2.2.2]octan]-3′-yl)benzo[b]thiophene-2-carboxamide-enantiomer1 hydrochloride] was tested, and the “% ACh @ 10 μM Oocyte” value was 35 % ACh. For `Cc1ccc2sc(C(=O)NC3C4CCN(CC4)C34CC4)cc2c1` (single isomer, unassigned; enantiomer1) [69a, 5-methyl-N-(1′-azaspiro[cyclopropane-1,2′-bicyclo[2.2.2]octan]-3′-yl)benzo[b]thiophene-2-carboxamide-enantiomer1 hydrochloride], the “% ACh @ 10 μM Oocyte” value was 162 % ACh. With `O=C(NC1C2CCN(CC2)C12CC2)c1cc2cc(C3CC3)ccc2s1` (single isomer, unassigned; enantiomer2) [72b, 5-cyclopropyl-N-(1′-azaspiro[cyclopropane-1,2′-bicyclo[2.2.2]octan]-3′-yl)benzo[b]thiophene-2-carboxamide-enantiomer2 hydrochloride] the “% ACh @ 10 μM Oocyte” value was 1 % ACh. In the case of `O=C(NC1C2CCN(CC2)C12CC2)c1cc2ccccc2s1` (single isomer, unassigned; enantiomer1) [54a, N-(1′-azaspiro[cyclopropane-1,2′-bicyclo[2.2.2]octan]-3′-yl)benzo[b]thiophene-2-carboxamide-enantiomer1 hydrochloride], the “% ACh @ 10 μM Oocyte” value was 4.5 % ACh.
